Molecules are shown by their SMILES.

In this experiment the test system is M. tuberculosis H37Rv. In words: BACTEC method of in-vitro screening (growth index, radiometric 7H12 broth). The class given is cell-based. Particulars: 100 μg/mL.

Consider `OC[C@H]1O[C@@](CO)(O[C@H]2O[C@H](CO)[C@@H](O)[C@H](O)[C@H]2O)[C@@H](O)[C@@H]1O` [sucrose], for which the inhibition of growth entry was “no inhibition”.
